Reference: patent US6444683B2, “17-azolyl steroids useful as androgen synthesis inhibitors” (University of Maryland at Baltimore, priority 1997, dated 2002)
“Also recorded” adds a separate entry of the source.

What was measured:
[1] = tested on: LNCaP human prostatic cancer cell; conditions: cited from earlier work
[2] = small group of men with advanced prostatic cancer; cited from earlier work
[3] = Stability at room temperature (TLC evidence); type: physicochemical
Protocol: The method followed that described for Synthesis Example 14, but using 3β-acetoxy-17-(1H-tetrazol-1-yl)-16-formylandrosta-5,16-diene (Compound 23) (140 mg, 0.3415 mmol). Purification of the crude product by FCC (silica gel, pet. ether/EtOAc (3:1)) gave Compound 26 (45 mg, 34.5%); ^1H NMR (300 MHz, CDCl3): δ 1.08 (3H, s, 18-Me), 1.20 (3H, s, 19-Me), 2.04 (3H, s, 3β-OAc), 4.62 (1H, m, 3α-H), 5.42 (1H, d, J=4.6Hz, 6-H), 6.00 (1H, s, 16-H) and 8.93 (1H, s, 5′-H). […] (TLC evidence) and was used for the subsequent reaction without further characterization.

Human P45017α = biological target: T1, Human P45017α (Homo sapiens, UniProt P05093); assay: Inhibition of human testicular microsomal P45017α (lyase activity, release of C3H3COOH from [21-3H3]-17α-hydroxypregnenolone); type: biochemical
T1 construct: Human testicular microsomes were prepared from human testes; from tissue; host or cells: human testes (untreated prostatic cancer patients undergoing orchidectomy), microsomal fraction
T1 sequence (P05093 1-508): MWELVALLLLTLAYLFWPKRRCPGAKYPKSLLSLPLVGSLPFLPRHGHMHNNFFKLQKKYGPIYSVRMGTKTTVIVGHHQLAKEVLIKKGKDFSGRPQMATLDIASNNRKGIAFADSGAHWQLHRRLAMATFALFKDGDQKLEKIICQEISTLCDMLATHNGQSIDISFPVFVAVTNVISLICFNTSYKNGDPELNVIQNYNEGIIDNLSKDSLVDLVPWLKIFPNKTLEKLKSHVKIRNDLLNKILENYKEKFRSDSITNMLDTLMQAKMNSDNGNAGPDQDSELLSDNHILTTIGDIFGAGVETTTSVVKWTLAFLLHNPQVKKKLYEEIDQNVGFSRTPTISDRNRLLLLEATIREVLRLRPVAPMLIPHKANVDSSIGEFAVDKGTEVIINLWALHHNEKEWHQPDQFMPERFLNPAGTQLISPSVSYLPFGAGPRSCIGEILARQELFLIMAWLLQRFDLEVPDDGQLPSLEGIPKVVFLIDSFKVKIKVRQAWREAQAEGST
Protocol: (§1) The microsomes were stored at −70° C. until assayed. Just before use, the thawed microsomes were diluted with 0.1 M phosphate buffer (pH 7.4) to appropriate concentrations.
(§2) This assay measures only the lyase activity of the P45017α enzyme.
(§3) IC50 values for inhibitors were calculated from the linear regression line in the plot of logit of lyase activity versus log of inhibitor concentration. […] Each inhibitor was examined at three concentrations.

Rat P45017α = biological target: T2, Rat P45017α (Rattus norvegicus, UniProt P11715); assay: Inhibition of rat testicular microsomal P45017α (lyase activity); type: biochemical
T2 sequence (P11715 1-507): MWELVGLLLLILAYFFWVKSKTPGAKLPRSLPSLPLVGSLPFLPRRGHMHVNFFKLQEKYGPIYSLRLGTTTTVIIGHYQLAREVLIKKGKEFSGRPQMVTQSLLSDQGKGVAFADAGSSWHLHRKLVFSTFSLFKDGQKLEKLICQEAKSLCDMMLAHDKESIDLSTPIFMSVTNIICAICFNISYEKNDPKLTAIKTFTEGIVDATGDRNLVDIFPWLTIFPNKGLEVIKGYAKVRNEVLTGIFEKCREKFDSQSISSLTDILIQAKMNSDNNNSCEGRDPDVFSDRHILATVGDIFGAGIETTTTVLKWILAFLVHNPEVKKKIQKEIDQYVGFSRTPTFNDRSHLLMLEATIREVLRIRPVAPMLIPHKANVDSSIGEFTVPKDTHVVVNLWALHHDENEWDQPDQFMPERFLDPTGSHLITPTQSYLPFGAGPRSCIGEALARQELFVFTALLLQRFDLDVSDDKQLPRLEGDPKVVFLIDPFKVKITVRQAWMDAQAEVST
Protocol: as §1, §2, §3

[4] = biological target: T3, human prostate 5α-reductase (Homo sapiens, UniProt P31213); assay: Inhibition of human prostate 5α-reductase in BPH microsomes (conversion of [7-3H]-testosterone to DHT); type: biochemical
T3 construct: The enzymatic reactions were initiated by addition of human BPH microsomes; from tissue; host or cells: human benign prostatic hyperplasia (BPH) tissue, microsomal fraction
T3 sequence (P31213 1-254): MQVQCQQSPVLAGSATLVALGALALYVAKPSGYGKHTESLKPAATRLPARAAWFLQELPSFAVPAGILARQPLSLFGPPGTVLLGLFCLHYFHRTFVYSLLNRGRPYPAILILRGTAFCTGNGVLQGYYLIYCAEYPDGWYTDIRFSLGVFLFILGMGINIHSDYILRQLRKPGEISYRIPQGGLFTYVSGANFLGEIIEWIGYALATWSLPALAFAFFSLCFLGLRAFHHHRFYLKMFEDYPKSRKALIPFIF
Protocol: […] The ethanol was evaporated to dryness under a gentle stream of air. […] The enzymatic reactions were initiated by addition of human BPH microsomes (about 180 μg of microsomal protein in 500 μl of phosphate buffer) in a total volume of 1.0 ml, and the incubations were performed for 10 min under oxygen in a shaking water bath at 37° C. The incubations were terminated by placing the sample tubes on ice and the addition of ether. Also, [^14C]-DHT (3000 dpm) and cold DHT (50 μg) were added to each tube as an internal standard and visualization marker, respectively. The steroids were extracted with ether and separated by TLC (chloroform:ether, 80:20) and visualized by exposure to iodine vapor. The extracts were analyzed for ^3H and ^14C using a liquid scintillation counter. The percentage conversion of [7-^3H]-testosterone to [^3H]-dihydrotestosterone was calculated and used to determine 5α-reductase activity.

[5] = tested on: LNCaP human prostatic cancer cell; assay: Androgen-stimulated growth of LNCaP human prostatic cancer cells in vitro
serum DHT levels = conditions: BPH patients; cited from earlier work

## C[C@]12CC[C@H]3[C@@H](CCC4=CC(=O)CC[C@@]43C)[C@@H]1CC[C@@H]2O [testosterone]
[1]; 0.1 nM testosterone
  Increase of growth of LNCaP cells compared to vehicle-treated cells: 6 fold

## C[C@]12CCC(=O)C(O)=C1CC[C@@H]1[C@@H]2CC[C@]2(C)C(=O)CC[C@@H]12 [Compound 4-OHA, 4-hydroxyandrostene-3,17-dione]
[2]
  Patients with subjective responses: 80%

## C[C@]12CCC(=O)C[C@@H]1CC[C@@H]1[C@@H]2CC[C@]2(C)[C@@H](O)CC[C@@H]12 [DHT, dihydrotestosterone]
[1]; 30 pM DHT
  Stimulation of proliferation of LNCaP cells compared to control: 5 fold

## CC(=O)O[C@H]1CC[C@@]2(C)C(=CC[C@@H]3[C@@H]2CC[C@]2(C)C(n4cnnn4)=CC[C@@H]32)C1 [Compound 26, 3β-acetoxy-17-(1H-tetrazol-1-yl)androsta-5,16-diene]
[3]
  Stability at room temp.: not particularly stable at room temp.

## C[C@]12CC[C@H](O)CC1=CC[C@@H]1[C@@H]2CC[C@]2(C)C(n3ccnc3)=CC[C@@H]12 [Compound 11, 3β-hydroxy-17-(1H-imidazol-1-yl)androsta-5,16-diene]
Human P45017α
  IC50: 8 nM
Human P45017α; Human P45017α Ki
  Ki: 1.2 nM
Human P45017α; Lineweaver-Burk analysis, progress curves
  Nature of inhibition kinetics of P45017α: slow-binding inhibitor
Human P45017α; human testicular microsomes
  Inhibition of human P45017α, in words: potent inhibitors; also recorded: powerful inhibitors
Human P45017α; read-out: % Inhibition of human P45017α
  inhibition at 0.15 µM: 97%
Rat P45017α
  IC50: 9 ± 2 nM
Rat P45017α; from IC50 values, rat vs human testicular microsomes
  Increase of potency towards the rat enzyme compared with human P45017α: unchanged
Rat P45017α; rat testicular microsomes
  Inhibition of rat testicular P45017α, in words: powerful inhibitors
[4]
  IC50: ~400000 nM
[4]; human prostate enzyme
  Inhibition of 5α-reductase, in words: poor inhibitors; also recorded: neither compound inhibited 5α-reductase
[5]; Homo sapiens, LNCaP, read-out: Inhibition of DHT-induced growth of LNCaP cells
  inhibition at 2.5 µM: 100%
[5]; Homo sapiens, LNCaP, read-out: Inhibition of testosterone-stimulated growth of LNCaP cells
  inhibition at 1 µM: 100%
[5]; concentration range 0.5-5.0 μM
  Toxicity to LNCaP cells: nor was toxic to the cells
[5]; inferred from inhibition of androgen-stimulated LNCaP growth
  Antiandrogenic effects: strong antiandrogenic effects

## CC(C)(C)NC(=O)[C@H]1CC[C@H]2[C@@H]3CC[C@H]4NC(=O)C=C[C@]4(C)[C@H]3CC[C@]12C [Finasteride, reference compound]
[4]
  IC50: 33 ± 2 nM
Serum DHT levels
  Reduction of serum DHT levels: 65-80%
